The text below walks through data of publication PMC9823811, “Anti-Microbial Activity of Aliphatic Alcohols from Chinese Black Cardamom (Amomum tsao-ko) against Mycobacterium tuberculosis H37Rv” (Plants, 2022).

In series [1] the test system is M. tuberculosis H37Rv (ATCC 27294). The series is described as follows: Microplate Alamar Blue Assay (MABA), MIC against replicating M. tuberculosis. It counts as cell-based, Mycobacterium tuberculosis. The note with it: 7 days at 37 °C; for MIC: Mycobacterium tuberculosis, 168 h.
Series [2] relates to non-replicating M. tuberculosis H37Rv_LuxABCDE. Put plainly: Low oxygen recovery assay (LORA), MIC against non-replicating M. tuberculosis. Type of series: cell-based, Mycobacterium tuberculosis. The note with it: for MIC: Mycobacterium tuberculosis; for MIC / MIC against M. tuberculosis H37Rv, LORA: non-replicating M. tuberculosis H37Rv, low oxygen.
Series [3] can be described thus: Cytotoxicity against Vero cells (resazurin). The note with it: African green monkey. (Resazurin is reduced to fluorescent resorufin, in cell work by metabolically active cells.)
In series [4] the test system is Vero cells (ATCC CRL-1586). The series is described as follows: Cytotoxicity against Vero cells (resazurin). The note with it: Vero cells, 72 h.
Series [5] has as its system Vero cells (ATCC CRL-1586). The note with it: African green monkey, 72 h.
Where [6] appears, read: MIC = lowest concentration reducing fluorescence by 90%.

By MIC is commonly meant the smallest concentration in the dilution series that meets the test's criterion for growth inhibition. By IC50 is commonly meant the concentration that gives 50% inhibition.

Values after ≈ are worked out from the molar mass of the structure shown.

As for `CCCCCCC/C=C/C=O` [Compound 7, (E)-decenal], the MIC in series [1] (setting [6]) and in series [2] was over 100 µg/mL in each case.
With `CC(C)=CCC/C(C)=C/CO` [Compound 10, geraniol], the MIC in series [1] ([…]) and in series [2] was over 100 µg/mL in each case.
For `NNC(=O)c1ccncc1` [Isoniazid, reference compound], the MIC is 0.03 µg/mL (≈ 0.219 µM) in series [1] (setting [6]) and over 18 µg/mL in series [2].
On to `CC(=O)NC[C@H]1CN(c2ccc(N3CCOCC3)c(F)c2)C(=O)O1` [Linezolid, reference compound], for which the MIC in series [1] (setting [6]) came out at 0.16 µg/mL (≈ 0.474 µM); in series [2], 0.62 µg/mL (≈ 1.84 µM).
Take `CC(=O)OC/C=C/CC/C=C/COC(C)=O` [Compound 6, (2E,6E)-1,8-diacetoxy-2,6-octadiene]: the figures for the MIC in series [1] (setting [6]), in series [1] ([…]) and in series [2] were 26.1 µg/mL (≈ 115 µM), over 20 µg/mL and over 100 µg/mL, respectively. In series [3] (Vero cells (ATCC CRL-1586)), this compound gave an IC50 at 72 h of 76.8 µg/mL (≈ 339 µM).
`CC(=O)OC/C=C/CCCC/C=C/CO` [Synthetic tsaokol A, tsaokol A] came in with an MIC in series [1] (setting [6]) of 1.4 µg/mL (≈ 6.59 µM). Further, in series [3] (Vero cells (ATCC CRL-1586)), the IC50 at 72 h was over 200 µg/mL. Further, the “Cytotoxicity against Vero Cells IC50” value in series [4] is on record as “identical to those of the isolated tsaokol A (3)”. In addition, the “Vero cytotoxicity, percentage in parentheses after the IC50 bound” value in series [5] is 10%.
For the compound “(E)-1-acetyl-8-decene-1,10-diol [Compound 1]”, the entries for the “MIC against M. tuberculosis H37Rv, MABA” value in series [1] (setting [6]) and in series [1] ([…]) were 10.2 µg/mL and “lower than 10 µg/mL”, respectively. For the same compound, the “Cytotoxicity against Vero Cells IC50” value in series [4] is given as over 200 µg/mL. For the same compound, the “MIC against M. tuberculosis H37Rv, LORA” value in series [2] is recorded as 61.5 µg/mL.
As for `CO[C@H]1/C=C/O[C@@]2(C)Oc3c(C)c(O)c4c(O)c(c(/C=N/N5CCN(C)CC5)c(O)c4c3C2=O)NC(=O)/C(C)=C\C=C\[C@H](C)[C@H](O)[C@@H](C)[C@@H](O)[C@@H](C)[C@H](OC(C)=O)[C@@H]1C` [Rifampicin, reference compound], the MIC in series [1] (setting [6]) was determined as 0.025 µg/mL (≈ 0.0304 µM); in series [2], 0.14 µg/mL (≈ 0.17 µM). This compound also had an IC50 at 72 h in series [3] (Vero cells (ATCC CRL-1586)) of over 100 µg/mL.
Turning to “(2E,8E)-1-acetyl-2,8-decadiene-1,10-diol [Compound 3]”, the “MIC against M. tuberculosis H37Rv, MABA” value in series [1] (setting [6]) is reported as 0.6 µg/mL; in series [1] ([…]), “lower than 10 µg/mL”. In series [4], the “Cytotoxicity against Vero Cells IC50” value is recorded as over 200 µg/mL. In series [2] (LORA MIC relative to MABA MIC), the “Ratio of non-replicating MIC (LORA) over replicating MIC (MABA)” value is “only two-fold higher”. Also, the “MIC against M. tuberculosis H37Rv, LORA” value in series [2] is given as 1.4 µg/mL.
Take `CCCCCCC/C=C/C(O)C(C)=O` (stereo not drawn) [Compound 8, (E)-1-acetyl-2-decene-1-ol]: the MIC in series [1] (setting [6]) and in series [2] was over 100 µg/mL in each case.
For the compound `CCCCCCCCC/C=C/C(O)C(C)=O` (stereo not drawn) [Compound 9, (E)-1-acetyl-2-dodecene-1-ol], the MIC in series [1] (setting [6]) and in series [2] was over 100 µg/mL in each case.
Turning to `OC/C=C/CCCC/C=C/CO` [Compound 5, (2E,8E)-2,8-decadiene-1,10-diol], the MIC was 4.3 µg/mL (≈ 25.3 µM) in series [1] (setting [6]), under 10 µg/mL in series [1] ([…]) and 5.9 µg/mL (≈ 34.7 µM) in series [2]. This compound also showed an IC50 at 72 h in series [3] (Vero cells (ATCC CRL-1586)) of 72.9 µg/mL (≈ 428 µM).
Consider `CC(=O)OC/C=C(\C)CCC=C(C)C` [Compound 11, geranyl acetate], for which the values for the MIC in series [1] (setting [6]), in series [1] ([…]) and in series [2] were 88.6 µg/mL, over 20 µg/mL and over 100 µg/mL, respectively. In series [3], this compound displayed an IC50 at 72 h of over 200 µg/mL.
Turning to `OC/C=C/CCCCCCCO` [Compound 2, (E)-2-decene-1,10-diol], the values for the MIC in series [1] (setting [6]), in series [1] ([…]) and in series [2] were 29.7 µg/mL (≈ 172 µM), over 20 µg/mL and 95.4 µg/mL (≈ 554 µM), respectively. This compound displayed a half-inhibitory concentration (IC50) at 72 h in series [3] (Vero cells (ATCC CRL-1586)) of over 200 µg/mL. The “Vero cytotoxicity, percentage in parentheses after the IC50 bound” value in series [5] is on record as 25%.
For the compound “(2E,8E)-1,10-diacetyl-2,8-decadiene-1,10-diol [Compound 4]”, the “MIC against M. tuberculosis H37Rv, MABA” value is given as 1.1 µg/mL in series [1] (setting [6]) and “lower than 10 µg/mL” in series [1] ([…]). The “Cytotoxicity against Vero Cells IC50” value in series [4] is given as 143.6 µg/mL. Further, the “MIC against M. tuberculosis H37Rv, LORA” value in series [2] is given as 21.6 µg/mL.
Consider `C=C[C@](C)(O)CC/C=C(\C)CCC=C(C)C` [Compound 12, (3R)-(E)-nerolidol], for which the MIC in series [1] (setting [6]) and in series [2] was over 100 µg/mL throughout.
